Laboratory results taken from the CheMixHub viscosity set.

Test: xn = mol fraction of the nth substance listed

O=S(=O)([O-])[O-].[Na+].[Na+] + O
Settings | viscosity [mPa·s]
293.15 K, 100 kPa, x1 = 0.003594 | 1.085
293.15 K, 100 kPa, x1 = 0.004923 | 1.125
293.15 K, 100 kPa, x1 = 0.01069 | 1.29
293.15 K, 100 kPa, x1 = 0.01596 | 1.483
293.15 K, 100 kPa, x1 = 0.02116 | 1.67
293.15 K, 100 kPa, x1 = 0.02795 | 1.939
293.15 K, 101.3 kPa, x1 = 0.0009 | 1.025
293.15 K, 101.3 kPa, x1 = 0.0018 | 1.046
293.15 K, 101.3 kPa, x1 = 0.00893 | 1.236
293.15 K, 101.3 kPa, x1 = 0.0125 | 1.349
293.15 K, 101.3 kPa, x1 = 0.0177 | 1.548
293.15 K, 101.3 kPa, x1 = 0.02116 | 1.701
298.15 K, 100 kPa, x1 = 6e-05 | 0.8907
298.15 K, 100 kPa, x1 = 0.00013 | 0.8915
298.15 K, 100 kPa, x1 = 0.00025 | 0.8935
298.15 K, 100 kPa, x1 = 0.00038 | 0.8955
298.15 K, 100 kPa, x1 = 0.003594 | 0.967
298.15 K, 100 kPa, x1 = 0.01069 | 1.148
298.15 K, 100 kPa, x1 = 0.01596 | 1.315
298.15 K, 100 kPa, x1 = 0.02116 | 1.508
298.15 K, 100 kPa, x1 = 0.02795 | 1.766
298.15 K, 101 kPa, x1 = 0.00893 | 1.099
298.15 K, 101 kPa, x1 = 0.0168 | 1.349
298.15 K, 101 kPa, x1 = 0.0222 | 1.556
298.15 K, 101 kPa, x1 = 0.03141 | 2.023
298.15 K, 101.3 kPa, x1 = 0.0009 | 0.9113
298.15 K, 101.3 kPa, x1 = 0.0018 | 0.9298
298.15 K, 101.3 kPa, x1 = 0.00893 | 1.1
298.15 K, 101.3 kPa, x1 = 0.0125 | 1.201
298.15 K, 101.3 kPa, x1 = 0.0177 | 1.374
298.15 K, 101.3 kPa, x1 = 0.02116 | 1.505
298.15 K, 101.3 kPa, x1 = 0.02631 | 1.72
298.15 K, 101.33 kPa, x1 = 0.03319 | 1.746
303.15 K, 100 kPa, x1 = 0.003594 | 0.868
303.15 K, 100 kPa, x1 = 0.01069 | 1.025
303.15 K, 100 kPa, x1 = 0.01596 | 1.171
303.15 K, 100 kPa, x1 = 0.02116 | 1.343
303.15 K, 100 kPa, x1 = 0.02795 | 1.584
303.15 K, 101.3 kPa, x1 = 0.0009 | 0.8166
303.15 K, 101.3 kPa, x1 = 0.0018 | 0.8339
303.15 K, 101.3 kPa, x1 = 0.00893 | 0.9866
303.15 K, 101.3 kPa, x1 = 0.0125 | 1.076
303.15 K, 101.3 kPa, x1 = 0.0177 | 1.229
303.15 K, 101.3 kPa, x1 = 0.02116 | 1.345
303.15 K, 101.3 kPa, x1 = 0.02631 | 1.531
308.15 K, 100 kPa, x1 = 6e-05 | 0.7195
308.15 K, 100 kPa, x1 = 0.00013 | 0.7205
308.15 K, 100 kPa, x1 = 0.00025 | 0.722
308.15 K, 100 kPa, x1 = 0.00038 | 0.724
308.15 K, 100 kPa, x1 = 0.00128 | 0.7637
308.15 K, 100 kPa, x1 = 0.003594 | 0.787
308.15 K, 100 kPa, x1 = 0.01069 | 0.933
308.15 K, 100 kPa, x1 = 0.01596 | 1.053
308.15 K, 100 kPa, x1 = 0.02116 | 1.205
308.15 K, 100 kPa, x1 = 0.02795 | 1.419
308.15 K, 101.3 kPa, x1 = 0.0009 | 0.7374
308.15 K, 101.3 kPa, x1 = 0.0018 | 0.7529
308.15 K, 101.3 kPa, x1 = 0.00893 | 0.8914
308.15 K, 101.3 kPa, x1 = 0.0125 | 0.9716
308.15 K, 101.3 kPa, x1 = 0.0177 | 1.107
308.15 K, 101.3 kPa, x1 = 0.02116 | 1.21
308.15 K, 101.3 kPa, x1 = 0.02631 | 1.373
308.65 K, 100 kPa, x1 = 0.004923 | 0.803
318.15 K, 101.3 kPa, x1 = 0.0009 | 0.6114
318.15 K, 101.3 kPa, x1 = 0.0018 | 0.624
318.15 K, 101.3 kPa, x1 = 0.00893 | 0.7405
318.15 K, 101.3 kPa, x1 = 0.0125 | 0.8058
318.15 K, 101.3 kPa, x1 = 0.0177 | 0.916
318.15 K, 101.3 kPa, x1 = 0.02116 | 0.9978
318.15 K, 101.3 kPa, x1 = 0.02631 | 1.127
323.15 K, 101 kPa, x1 = 0.00893 | 0.676
323.15 K, 101 kPa, x1 = 0.0168 | 0.819
323.15 K, 101.33 kPa, x1 = 0.05655 | 1.545

CN(C)CCCO + NCCCO
viscosity [mPa·s], 100 kPa
Settings | x2 = 0.1 | x2 = 0.1998 | x2 = 0.2997 | x2 = 0.4008 | x2 = 0.5 | x2 = 0.5024 | x2 = 0.6004 | x2 = 0.7021 | x2 = 0.7992 | x2 = 0.9007
293.15 K | 8.883 | 10.61 | 12.71 | 15.1 | 18.49 | 18.49 | 21.41 | 24.67 | 29.63 | 34.66
303.15 K | 6.062 | 7.04 | 8.322 | 9.824 | 11.73 | 11.73 | 13.48 | 15.36 | 18.09 | 20.64
313.15 K | 4.35 | 5.099 | 5.838 | 6.628 | 7.819 | 7.819 | 8.782 | 9.908 | 11.62 | 13.22
323.15 K | 3.23 | 3.72 | 4.206 | 4.668 | 5.389 | 5.389 | 6.034 | 6.779 | 7.862 | 8.889

CCOC(=O)c1cccc(O)c1 + CCCCCOC(C)=O
Settings | viscosity [mPa·s]
298.15 K, 101 kPa, x2 = 0.5 | 1.587
